# Data published in US20110130286A1, “Piperazine Compounds with Herbicidal Effect” (BASF SE, priority 2008, published 2011).
# Tests used:
# AVEFA = assay: greenhouse test, post-emergence treatment; assay type: in vivo, Avena fatua; conditions: application rate 1.0 kg/ha, scale from 0 to 100
# Text: (§1) The culture containers used were plastic flowerpots containing loamy sand with approximately 3.0% of humus as the substrate. The seeds of the test plants were sown separately for each species.
# (§2) For the post-emergence treatment, the test plants were first grown to a height of 3 to 15 cm, depending on the plant habit, and then treated with the active compounds which had been suspended or emulsified in water. For this purpose, the test plants were either sown directly and grown in the same containers, or they were first grown separately as seedlings and transplanted into the test containers a few days prior to treatment.
# (§3) Depending on the species, the plants were kept at 10-25° C. or 20-35° C. The test period extended over 2 to 4 weeks. During this time, the plants were tended, and their response to the individual treatments was evaluated.
# (§4) Evaluation was carried out using a scale from 0 to 100. 100 means no emergence of the plants, or complete destruction of at least the aerial moieties, and 0 means no damage, or normal course of growth. A good herbicidal activity is given at values of at least 70 and a very good herbicidal activity is given at values of at least 85.
# LOLMU = assay: greenhouse test, post-emergence treatment; assay type: in vivo, Lolium multiflorum; conditions: application rate 1.0 kg/ha, scale from 0 to 100
# Text: as §1, §2, §3, §4
# ECHCG [1] = assay: greenhouse test, post-emergence treatment; assay type: in vivo, Echinochloa crus-galli; conditions: application rate 1.0 kg/ha, scale from 0 to 100
# Text: as §1, §2, §3, §4
# ABUTH = assay: greenhouse test, pre-emergence treatment; assay type: in vivo, Abutilon theophrasti
# Text: as §1
# (§5) For the pre-emergence treatment, the active compounds, which had been suspended or emulsified in water, were applied directly after sowing by means of finely distributing nozzles. The containers were irrigated gently to promote germination and growth and subsequently covered with transparent plastic hoods until the plants had rooted. This cover caused uniform germination of the test plants, unless this has been impaired by the active compounds.
# (§6) Depending on the species, the plants were kept at 10-25° C. or 20-35° C. […] During this time, the plants were tended, and their response to the individual treatments was evaluated. […]
# (§7) The test period extended over 20 or 21 days. During this time, the plants were tended, and their reactions to the treatments with active compound were monitored.
# (§8) In the examples below, using the method of S. R. Colby (1967) “Calculating synergistic and antagonistic responses of herbicide combinations”, Weeds 15, p. 22ff., the value E, which is expected if the activity of the individual active compounds is only additive, was calculated.
# (§9) What was evaluated was the damage by the chemical compositions using a scale of from 0 to 100%, in comparison to the untreated control plants. […]
# BRAPL = assay: greenhouse test, pre-emergence treatment; assay type: in vivo, Brachiaria plantaginea
# Text: as §1, §5, §6, §7, §8, §9
# ECHCG [2] = assay: greenhouse test, pre-emergence treatment; assay type: in vivo, Echinochloa crus-galli
# Text: as §1, §5, §3, §4
# (§10) The respective stated components A and B were formulated as a 5% by weight strength or 10% by weight strength emulsion concentrate, or a commercial formulation of component B was used, and, with addition of the amount of solvent system, introduced into the spray liquor used for applying the active compound. In the examples, the solvent used was water.
# as §7, §8
# (§11) What was evaluated was the damage by the chemical compositions using a scale of from 0 to 100%, in comparison to the untreated control plants. 0 means no damage, and 100 means complete destruction of the plants.
# VIOAR = assay: greenhouse test, pre-emergence treatment; assay type: in vivo, Viola arvensis
# Text: as §1, §5, §6, §7, §8, §9
# ALOMY [3] = assay: greenhouse test, post-emergence treatment; assay type: in vivo, Alopecurus agrestis
# Text: as §1, §2, §6, §7, §8, §9
# POLCO [4] = assay: greenhouse test, post-emergence treatment; assay type: in vivo, Fallopia convolvulus
# Text: as §1, §2, §6, §7, §8, §9
# SETVI = assay: greenhouse test, pre-emergence treatment; assay type: in vivo, Setaria viridis
# Text: as §1, §5, §6, §7, §8, §9
# APESV [5] = assay: greenhouse test, post-emergence treatment; assay type: in vivo, Apera spica-venti
# Text: as §1, §2, §6, §7, §8, §9
# BROIN [6] = assay: greenhouse test, pre-emergence treatment; assay type: in vivo, Bromus inermis
# Text: as §1, §5, §3, §10, §7, §8, §11
# ALOMY [7] = assay: greenhouse test, pre-emergence treatment; assay type: in vivo, Alopecurus agrestis; conditions: for herbicidal activity against ALOMY: application rate 0.125 kg/ha, comparative test
# Text: as §1, §5, §3, §4, §10, §7, §8, §11
# LAMPU = assay: greenhouse test, pre-emergence treatment; assay type: in vivo, Lamium purpureum
# Text: as §1, §5, §6, §7, §8, §9
# POLCO [8] = assay: greenhouse test, pre-emergence treatment; assay type: in vivo, Fallopia convolvulus
# Text: as §1, §5, §6, §7, §8, §9
# BROIN [9] = assay: greenhouse test, post-emergence treatment; assay type: in vivo, Bromus inermis
# Text: as §1, §2, §6, §7, §8, §9
# APESV [10] = assay: greenhouse test, pre-emergence treatment; assay type: in vivo, Apera spica-venti; conditions: for herbicidal activity against APESV: application rate 0.125 kg/ha, comparative test
# Text: as §1, §5, §3, §4, §10, §7, §8, §11
# CHEAL = assay: greenhouse test, post-emergence treatment; assay type: in vivo, Chenopodium album
# Text: as §1, §2, §6, §7, §8, §9
# [11] = application rate 0.125 kg/ha, comparative test
smiles,measurement,setting,value
"CN1C(=O)C(C)(Cc2ccccc2)N(C)C(=O)C1=Cc1cccnc1Cl (stereo not drawn) [Example 3, 3-benzyl-6-[1-(2-chloropyridin-3-yl)methylidene]-1,3,4-tri-methylpiperazine-2,5-dione]",melting point,,146 °C
CN1C(=O)C(C)(Cc2ccccc2)N(C)C(=O)C1=Cc1cccnc1Br (racemic) [I-1],herbicidal activity against AVEFA,AVEFA,very good (a very good herbicidal activity is given at values of at least 85)
same,herbicidal activity against LOLMU,LOLMU,very good (a very good herbicidal activity is given at values of at least 85)
same,herbicidal activity against ECHCG,ECHCG [1],very good (a very good herbicidal activity is given at values of at least 85)
"CN1C(=O)C(C)(Cc2ccccc2)N(C)C(=O)C1=Cc1cccnc1C#N (stereo not drawn) [Example 4, 3-(5-benzyl-1,4,5-trimethyl-3,6-dioxopiperazin-2-ylidene-methyl)pyridine-2-carbonitrile]",melting point,,163 °C
"CC(C)N(C)S(=O)(=O)NC(=O)c1cc(-n2c(=O)cc(C(F)(F)F)n(C)c2=O)c(F)cc1Cl [saflufenacil, reference compound]",Herbicidal activity in % after 20 days against ABUTH,ABUTH; 6.25 g/ha a.s.,90%
same,Herbicidal activity in % after 20 days against BRAPL,BRAPL; 6.25 g/ha a.s.,35%
same,Herbicidal activity in % after 20 days against ECHCG,ECHCG [2]; 6.25 g/ha a.s.,0%
same,Herbicidal activity in % after 20 days against VIOAR,VIOAR; 6.25 g/ha a.s.,80%
"Cn1nc(C(F)(F)F)c(CS(=O)(=O)C2=NOC(C)(C)C2)c1OC(F)F [pyroxasulfone, reference compound]",Herbicidal activity in % after 20 days against ALOMY,ALOMY [3]; 12.5 g/ha a.s.,85%
same,Herbicidal activity in % after 20 days against POLCO,POLCO [4]; 12.5 g/ha a.s.,40%
same,Herbicidal activity in % after 20 days against SETVI,SETVI; 12.5 g/ha a.s.,90%
same,Herbicidal activity in % after 20 days against APESV,APESV [5]; 12.5 g/ha a.s.,80%
same,Herbicidal activity in % after 20 days against BROIN,BROIN [6]; 12.5 g/ha a.s.,65%
same,Herbicidal activity in % after 20 days against ALOMY,ALOMY [7]; 12.5 g/ha a.s.,90%
same,Herbicidal activity in % after 20 days against LAMPU,LAMPU; 12.5 g/ha a.s.,80%
CC(C)CN1C(=O)C(=Cc2cccnc2Br)N(C)C(=O)C1(C)Cc1ccccc1 (racemic) [I-463],herbicidal activity against ECHCG,"ECHCG [2]; application rate 0.5 kg/ha, scale from 0 to 100",good (A good herbicidal activity is given at values of at least 70)
"CCC(CC)Nc1c([N+](=O)[O-])cc(C)c(C)c1[N+](=O)[O-] [pendimethalin, reference compound]",Herbicidal activity in % after 20 days against POLCO,POLCO [8]; 250 g/ha a.s.,70%
same,Herbicidal activity in % after 20 days against BROIN,BROIN [9]; 250 g/ha a.s.,0%
same,Herbicidal activity in % after 20 days against BROIN,BROIN [6]; 250 g/ha a.s.,40%
same,Herbicidal activity in % after 20 days against APESV,APESV [10]; 250 g/ha a.s.,95%
same,Herbicidal activity in % after 20 days against CHEAL,CHEAL; 250 g/ha a.s.,75%
"CN1C(=O)C(Cc2ccccc2)N(C)C(=O)/C1=C/c1cccnc1C#N (stereo not drawn) [Ex. 14, reference compound]",herbicidal activity against APESV,APESV [10],90%
same,herbicidal activity against ALOMY,ALOMY [7],no herbicidal activity
same,herbicidal activity against ECHCG,ECHCG [2]; [11],no herbicidal activity
CN1C(=O)C(C)(Cc2ccccc2)N(C)C(=O)/C1=C/c1cccnc1C#N (stereo not drawn) [I-2],Herbicidal activity in % after 20 days against ALOMY,ALOMY [3]; 62.5 g/ha a.s.,45%
same,Herbicidal activity in % after 20 days against POLCO,POLCO [4]; 62.5 g/ha a.s.,40%
same,Herbicidal activity in % after 20 days against SETVI,SETVI; 62.5 g/ha a.s.,90%
same,Herbicidal activity in % after 20 days against POLCO,POLCO [8]; 125 g/ha a.s.,80%
same,Herbicidal activity in % after 20 days against APESV,APESV [5]; 62.5 g/ha a.s.,40%
same,Herbicidal activity in % after 20 days against BROIN,BROIN [9]; 125 g/ha a.s.,45%
same,Herbicidal activity in % after 20 days against BROIN,BROIN [6]; 62.5 g/ha a.s.,20%
same,Herbicidal activity in % after 20 days against BROIN,BROIN [6]; 125 g/ha a.s.,80%
same,Herbicidal activity in % after 20 days against APESV,APESV [10]; 125 g/ha a.s.,95%
same,herbicidal activity against APESV,APESV [10],100%
same,Herbicidal activity in % after 20 days against ABUTH,ABUTH; 62.5 g/ha a.s.,0%
same,Herbicidal activity in % after 20 days against BRAPL,BRAPL; 62.5 g/ha a.s.,65%
same,Herbicidal activity in % after 20 days against ALOMY,ALOMY [7]; 62.5 g/ha a.s.,65%
same,herbicidal activity against ALOMY,ALOMY [7],75%
same,Herbicidal activity in % after 20 days against ECHCG,ECHCG [2]; 62.5 g/ha a.s.,40%
same,herbicidal activity against ECHCG,ECHCG [2]; [11],80%
same,melting point,,163 °C
same,Herbicidal activity in % after 20 days against LAMPU,LAMPU; 62.5 g/ha a.s.,40%
same,Herbicidal activity in % after 20 days against VIOAR,VIOAR; 62.5 g/ha a.s.,60%
same,Herbicidal activity in % after 20 days against CHEAL,CHEAL; 125 g/ha a.s.,70%
